Experimental data: EP1379634B1 (THE UNIVERSITY OF GEORGIA RESEARCH FOUNDATION, INC., priority 2001, dated 2002)
Residues, ends and D or L forms follow the SMILES beside them. *: point of attachment. AFC = O=c1cc(C(F)(F)F)c2ccc(N*)cc2o1; MeOSuc = COC(=O)CCC(=O)*; Cbz = O=C(OCc1ccccc1)*; Boc = CC(C)(C)OC(=O)*

Assays:
BALB/c mice = assay: Observation of side effects in treated mice; format: in vivo; conditions: long-term studies
[1] = test system: purified Taenia solium cysteine protease; assay: Competitor assay of low Vmax substrates (vehicles) against high Vmax substrate cocktails (Step III), purified protease; format: biochemical; conditions: vehicle 8X10^-6 M; for inhibition with the final cocktail (7.4%): 7.4% cocktail (five high Vmax substrates, 1X10^-6 M each); for V Value: V = P * M, P inhibition with first (1.4%) cocktail, M with last (7.4%) cocktail, each cocktail substrate 1X10^-6 M; for inhibition with the 1.4% cocktail: 1.4% cocktail (Z-FR-AFC 1X10^-6 M)
Method: The top 1.4% of substrates (out of 67) in the full panel of substrates with the highest Vmax values were chosen to compose a "TOP 1.4% cocktail". (We employed "Vmax" here although Kcat could also be used). Due to the lower number of substrates, a percentage was not chosen for the "BOTTOM %" substrates. Alternately, all substrates which were not cleaved as determined by a value of 10 uM/hr or less, were chosen to be tested in this step for competitive ability. Hereinafter the term "vehicle" will represent low Vmax substrates that were capable of inhibiting cleavage of the percent cocktails. In this instance, we tested for "vehicles" which inhibited cleavage of the TOP 1.4% cocktail (they were delivered into the active site). Based upon our results from Step II, the top 1.4% cocktail was composed of Z-Phe-Arg-AFC, the highest cleaved substrate.
The experiment began with a competitor test between the noncleaved low Vmax substrates and the highest Vmax substrate, Z-Phe-Arg-AFC. Concentrations were varied between the low Vmax substrate and Z-Phe-Arg-AFC, as described above under "refinement of assay" until a relative inhibition profile was obtained.
The mixture was allowed to equilibrate for a period of 30 minutes. Finally, active purified enzyme was added to the tubes at a concentration that was always 50 times less than the concentration of the high and low Vmax substrates, respectively, in order to insure saturation conditions. This concentration varied from purification to purification and the amount added depended upon the yield and specific activity of the purified protease.
Positive controls were set up in a manner similar to that described for test controls, except that solvent was added in substitution for the low Vmax substrate (in a volume equal to the low Vmax volume addition). All of the substrates could be dissolved in dimethylsulfoxide (DMSO), and therefore, this was the solvent of choice. Negative controls were set up by adding the low Vmax and the high Vmax substrate in a tube without the protease. All potential non-proteolytic induced liberation of AFC was therefore controlled for in this tube (a feature which also monitored stability of the AFC substrates, since these substrates will freely liberate AFC when unstable). A tube set was established for this negative control.
All controls were set up in triplicate, and experiments were repeated a minimum of five times. The assays were incubated at 37°C, for 18 hours overnight.
Percent inhibition was calculated as: %Inhibition = ((AFC positive for "Y"−AFC negative for "Y")−(AFC test−AFC negative for "Y"))/(AFC positive for "Y"−AFC negative for "Y") × 100 [formula]
A 2.9% cocktail of the high Vmax substrates was made. This was composed of Z-FR-AFC and the second most cleaved substrate, Z-FAR-AFC. The vehicles promoted from the initial screenings above were again tested for competitive inhibition ability with the new cocktails. Their concentrations were set identically to those which were "fixed" in the previous protocols. In other words, 8X10^-6 M of the vehicle was added to the culture tube with 1X10^-6 M of Z-FR-AFC and 1X10^-6 M of Z-FAR-AFC. Active protease was added last at a concentration that was 50 times less than the concentration of the high Vmax substrate (to ensure saturating conditions).
In similar experimental fashion, a 4.4%, 5.9%, and 7.4% cocktail were tested with each of the promising vehicles. Each increase in the percentage represented an increase by an additional high Vmax substrate. Each of the individual components in the cocktail were added at 1X10^-6 M each, to 8X10^-6 M of the vehicle. The composition of the cocktails was as follows: 4.4% cocktail: Z-FR-AFC, Z-FAR-AFC, and Z-AAK-AFC (third highest cleaved substrate); 5.9% cocktail: Z-FR-AFC, Z-FAR-AFC, Z-AAK-AFC, and AP-AFC (fourth highest cleaved substrate); 7.4% cocktail: […], Z-FAR-AFC, Z-AAK-AFC, AP-AFC, and Z-VLR-AFC. […]

Taenia solium crude mix = assay: Competitor assay of vehicles against high Vmax substrate cocktails (Step III), crude mix; format: biochemical
Description: Step III for a crude mix proceeds as it would for a purified protease, except that Vm is used instead of kcat.
One of the most intriguing findings in this experiment was that a highly similar inhibition pattern for the competitor assay resulted when the crude mix was employed as the source of the target protease. Although there were some variations in the effects of inhibitor dilution, the most highly ranked vehicles remained inhibitory consistently in comparison to the profile with the target protease. The relative profile and composition of the top tier of vehicles was identical. Z-LLL-AFC, Z-LLY-AFC, Mu-LY-AFC, Boc-VPR-AFC, Z-SY-AFC, Z-RR-AFC, Z-FLF-AFC, and Z-LGR-AFC consistently emerged as the top eight vehicles (Fig. 5b), respectively, based upon their V values (Table 2). […] It was notable that the three vehicles had very similar V values. […] As was mentioned, this vehicle along with Z-LLL-AFC and Z-LLY-AFC, were consistently the most inhibitory vehicles. The V values of the most inhibitory vehicle series are shown below in Table 2. Again, a clear break between the first and second tier vehicles is discernible for the V value. Table 2. Vehicles and V value rankings.

[2] = test system: purified Taenia solium cysteine protease; assay: Substrate cleavage screen of AFC-linked peptides (Step II), purified protease; format: biochemical; conditions: 0.4 M Citrate, pH 4.9, 0.01 M cysteine, 18 h, 37 °C
Method: In this step, the most efficacious substrate for detection of the cysteine protease (high Kcat substrate) was determined in vitro along with those substrates which were not well cleaved (low kcat substrates). From this point forward, the following conditions refer to all assays: "assay buffer" refers to 0.4 M Citrate, pH 4.9 (the pH optima of the protease). Incubation time was 18 hours at 37°C. These conditions were determined by our preliminary data to be best for kinetic evaluation of the protease. […] The experiments were conducted in 6X50 […] Borosilicate mini-culture tubes (Fisher Scientific), and a fluorometer (Turner) was employed for detection of AFC cleavage.
Since the full 8,420 amino acid possibilities for cleavage were not available, representative substrates were employed. […] In order to choose this subset, representative amino acids (i.e., selected from the categories of acidic, basic, nonpolar, uncharged) were chosen so as to create as many categories of motifs as feasible for the P3-P1 positions with a set of 67 small peptides (see lists at Fig. 4a and Fig. 4b). The target cysteine protease from Taenia solium was isolated using the purification methods described previously in the patent WO 00/63350.
Approximately 1 ug (or a proteolytically detectable amount) of the purified target cysteine protease was incubated individually, with 1 ug of each of the available substrates in 500 uL of assay buffer. During this setup, the substrate was pre-incubated in the assay buffer for a short period of time (20 minutes) in order to reach an equilibrated status before the addition of the protease. Cleavage assessments were based upon the property of the protease to cleave synthetic peptide substrates linked at the C-terminus to 7-Amino-4-Trifluoromethyl Coumarin (AFC) as previously described. AFC linked tripeptides, dipeptides, and monopeptides, (with a variety of permutations at P3-P1) were available from Enzyme Systems Products (Livermore, CA), and were used as the source of the subset. Following incubation of enzyme preparations overnight (18 h, 37 °C) with peptide in assay buffer (Citrate, pH 4.9, supplemented with 0.01 M cysteine), free AFC concentrations were measured fluorometrically (excitation 405 nm, emission 505 nm). The proteolytic cleavage released the AFC group, which was measurable as a free molecule by a standard fluorometer and converted into molar quantities, based upon a previously established standard curve. The simplicity of AFC detection by the fluorometer was a key factor which expedited and simplified the procedures.
In the assay, 1 ug of the purified Taenia cysteine protease was added to a saturating amount of Z-Phe-Arg-AFC (4X10^-5 M) in assay buffer. The experiment was conducted in triplicate and repeated at least 5 times until we were certain that variability in AFC cleavage was not statistically significant.
Vmax for the cleavage of substrates by the purified target protease and Vmax for substrates cleaved by the crude mix protease were each calculated using conventional kinetic modeling calculations already described in the art.

Row | Compound | inhibition with the final cocktail (7.4%) [1] | Tier (Taenia solium crude mix) | cleavage of AFC substrate (Vmax) [2] | other results
1 | CC(C)CC(NC(=O)OCc1ccccc1)C(=O)NC(C=CS(=O)(=O)c1ccccc1)Cc1ccccc1 (stereo not drawn) |  |  |  | side effects in treated mice (BALB/c mice): goiter and neurological problems
2 | CC(C)[C@H](NC(=O)OC(C)(C)C)C(=O)N1CCC[C@H]1C(=O)N[C@@H](CCCNC(=N)N)C(=O)Nc1ccc2c(C(F)(F)F)cc(=O)oc2c1 [B-VPR-AFC, Boc-Val-Pro-Arg-AFC] (Boc-Val-Pro-Arg-{AFC}) | less than 20% | 2 (The second tier was composed of those vehicles that produced inhibition between 20-50% inhibition when in the presence of the 1.4% cocktail) | noncleavable | V Value ([1]; listed as B-VPR-AC): 0.120
3 | N[C@@H](CCC(=O)O)C(=O)N[C@@H](Cc1ccc(O)cc1)C(=O)Nc1ccc2c(C(F)(F)F)cc(=O)oc2c1 [EY-AFC] (H-Glu-Tyr-{AFC}) |  |  | not cleaved | 
4 | COC(=O)CCC(=O)N[C@@H](Cc1ccccc1)C(=O)N[C@@H](CC(C)C)C(=O)N[C@@H](Cc1ccccc1)C(=O)Nc1ccc2c(C(F)(F)F)cc(=O)oc2c1 [MeoSuc-FLF-AFC] (MeOSuc-Phe-Leu-Phe-{AFC}) |  |  | not cleaved | 
5 | CC(C)C[C@H](NC(=O)OCc1ccccc1)C(=O)N[C@@H](CCCNC(=N)N)C(=O)N[C@@H](CCCNC(=N)N)C(=O)Nc1ccc2c(C(F)(F)F)cc(=O)oc2c1 [Z-LRR-AFC] (Cbz-Leu-Arg-Arg-{AFC}) |  |  |  | inhibition with the 1.4% cocktail [1]: greater than 20%
6 | N=C(N)NCCC[C@H](NC(=O)OCc1ccccc1)C(=O)N[C@@H](CCCNC(=N)N)C(=O)Nc1ccc2c(C(F)(F)F)cc(=O)oc2c1 [Z-RR-AFC] (Cbz-Arg-Arg-{AFC}) | less than 20% | 2 (The second tier was composed of those vehicles that produced inhibition between 20-50% inhibition when in the presence of the 1.4% cocktail) |  | V Value [1]: 0.09
7 | O=C(N[C@@H](CO)C(=O)N[C@@H](Cc1ccc(O)cc1)C(=O)Nc1ccc2c(C(F)(F)F)cc(=O)oc2c1)OCc1ccccc1 [Z-SY-AFC] (Cbz-Ser-Tyr-{AFC}) | less than 20% | 2 (The second tier was composed of those vehicles that produced inhibition between 20-50% inhibition when in the presence of the 1.4% cocktail) |  | V Value [1]: 0.09; V Value (Taenia solium crude mix; V = P * M): 0.09
8 | Cbz-Leu-Gly-Arg-{AFC} [Z-LGR-AFC] | less than 20% |  | noncleavable | inhibition with the 1.4% cocktail [1]: greater than 20%
